Experimental findings from patent publication US20090048198A1, “COMPOSITIONS AND METHODS FOR NUCLEIC ACID DELIVERY SYSTEMS” (Northwestern University, priority 2007, published 2009) are described below.

The nature of data set [1]: DSC of hydrated cationic lipid dispersions and binary phase diagrams. The following applies: for melting transition Tm (solid-liquid crystalline): hydrated dispersions, DSC heating 30° C./h. Type of data set: physicochemical. The procedure:
(§1) Chloroform solutions of cationic lipids were mixed in glass vials at the desired ratios, solvent was removed with a N2 stream and, subsequently, high vacuum. The lipid mixtures were hydrated in PBS (50 mM phosphate buffer, 100 mM NaCl, pH 7.2) overnight at room temperature and vortex-mixed for several minutes; then they were subjected to several cycles of freezing and thawing. Samples were subsequently equilibrated overnight at room temperature before measurement.
DSC measurements were performed using a VP-DSC Microcalorimeter (MicroCal Inc., Northampton, Mass.) at 30° C./h. Thermograms were analyzed using OriginLab (Northampton, Mass.) software. The onset and the completion temperatures of the phase transitions needed for the construction of the phase diagram were determined by the intersections of the peak slopes with the baseline on the thermograms. The maximums of the heat capacity curves were taken as the phase transition temperatures of the pure components. For asymmetric or split line shapes of the composite aggregates, the transition temperature was defined as that temperature at which the area of the endotherm was divided into equal halves.

Data set [2] deals with Human umbilical artery endothelial cells (HUAECs). The data set is described as follows: Transfection of HUAECs with lipoplexes, β-galactosidase reporter assay. Type of data set: cell-based. Conditions: HUAEC cells in vitro; CMV-β-galactosidase plasmid; β-galactosidase activity 24 h after transfection. As to the method:
Human umbilical artery endothelial cells (HUAECs) were obtained from Cambrex (Walkersville, Md.) were and maintained in EGM-2 MV containing 5% fetal bovine serum (FBS) (Cambrex) at 37° C. with 5% CO2. At confluence, the cells were passaged using 0.25 mg/ml Trypsin/EDTA (Cambrex) and were used at passages 5-10 for these experiments. It is noted that human endothelial cells, and particularly HUAECs, are known in the art to be difficult to transfect (see, Teifel, et al., Endothelium, New York, 5, 21-35 (1997); Krotz et al., J. Vasc. Res., 40:425-434 (2003); and Tanner et al., Cardiovascular Research, 35:522-528 (1997)) all of which are herein incorporated by reference. For example, it has been reported that the level of transfection for a reporter gene in human umbilical vein endothelial cells is less than 1% of that of HeLa cells (Edgell et al., BioTechniques, 25:264-272 (1998), herein incorporated by reference).
The cells were seeded in 96-well plates at 24 h before transfection at densities appropriate to give about 80% confluence at the time of transfection. CMV-β-galactosidase plasmid was purchased from Clontech Laboratories Inc. (Palo Alto, Calif.) and propagated and purified by Bayou Biolabs (Harahan, La.). […]
(In general: A reporter such as luciferase makes a cellular process visible.)

A short description of data set [3]: Synchrotron small-angle X-ray diffraction (SAXD) on heating. Type of data set: physicochemical. The following applies: SAXD heating scans 20-90° C. The procedure: as §1
Measurements were performed at Argonne National Laboratory, Advanced Photon Source, DND-CAT (beamline 5-IDD) and BioCAT (beamline 18-ID), using 12 keV X-rays, as previously described [1 R. Koynova, R. C. MacDonald, Mixtures of Cationic Lipid O-Ethylphosphatidylcholine With Membrane Lipids and DNA: Phase Diagrams, Biophys. J. 85 (2003) 2449-2465]. The lipid concentration of the dispersions was 20 wt %. Samples were filled into glass capillaries (Charles Supper Co., Natick, Mass.) and flame-sealed. A Linkam thermal stage (Linkam Sci Instruments, Surrey, England) provided temperature control. Linear heating and cooling scans were performed at rates of 1-5° C./min. Exposure times were typically 0.5 sec. Data were collected using a MAR-CCD detector. Sample-to-detector distance was 1.8-2 m. […] Products of lipid degradation were not detected in these samples, and radiation damage of the lipids was not evident from their X-ray patterns.

Where “and” joins values, the source holds several entries; their conditions need not be identical. Equal values may be shown once.

Take `CCCCCCCCCCCCCCCC(=O)OC[C@H](COP(=O)(OCC)OCC[N+](C)(C)C)OC(=O)CCCCCCCCCCCCCCC` (some centres unmarked) [EDPPC]: in data set [1], the “phase at physiological temperature (37° C.) according to phase diagram” value (shortened to “phase at physiological temperature”) is on record as “solid phase” and the “melting transition Tm (solid-liquid crystalline)” value (“melting transition Tm” below) was determined as 42 °C. For the same molecule, the transfection activity result in data set [2] was “still transfects DNA into cells”.

As to `CCCCCCCCCCCCCC[N+](C)(C)CCCCCCCCCCCCCC.[Br-]` [diC14DAB, Ditetradecyldimethylammonium-bromide], the “temperature of solid-liquid crystalline (lamellar) transition on heating” value in data set [3] was 25 °C and ~26 °C. In addition, the “melting transition Tm” value in data set [1] stood at 26 °C.

Regarding `CCCCCCCCCCCCCC(=O)OC[C@H](COP(=O)(OCC)OCC[N+](C)(C)C)OC(=O)CCCCCCCCCCCCC` (some centres unmarked) [EDMPC], in data set [1], the “phase at physiological temperature” value was “liquid crystalline phase” and the “melting transition Tm” value was 24 °C. Further, the transfection activity result in data set [2] is on record as “better transfection agents than EDPPC”.

Turning to `CCCCCCCCCCCCCCCCCC[N+](C)(C)CCCCCCCCCCCCCCCCCC.[Br-]` [diC18DAB, dioctadecyldimethylammonium-bromide], in data set [3], the “temperature of solid-liquid crystalline (lamellar) transition on heating” value amounted to 47 °C. For the same molecule, in data set [1], the “phase at physiological temperature” value is “solid phase” and the “melting transition Tm” value was about 50 °C.
